Assay results as given in patent US12415785B2, “Compound modulators of sting” (CTXT PTY LTD, priority 2019, dated 2025).

Legend:
[1] = molecular target: human HAQ isoform of STING (THP-1 STING Lucia ISG cells) (Homo sapiens (Human), UniProt Q86WV6, G230A/H232R/R293Q/R71H); experiment: THP-1 STING Lucia ISG reporter cell line assay; assay type: cell-based; conditions: 24 h incubation, QUANTI-Luc luminescence
Method: (§1) THP-1 STING Lucia ISG cells (InvivoGen #thpI-isg) were cultured in RPMI-1640 containing 2 mM L-glutamine, 25 mM HEPES, 100 μg/mL Normocin (InvivoGen) and 10% heat-inactivated FBS. Cells were seeded at a density of 7×10^5 cells/mL, maintained at 37° C./5% CO2, and passaged every 3-4 days. Selection pressure was maintained by the addition of 100 μg/mL Zeocin every second passage.
(§2) Assay conditions: cells were harvested and resuspended at a concentration of 5×10^5 cells/mL in fresh growth media. Of this cell preparation 20 μL per well was dispensed into 384 well cell culture plates (Greiner, #781098X) and incubated at 37° C./5% CO2 for 2 hours. Concentration Response Curves (commonly 11 doses) were prepared by 2.5 fold serial dilution starting from 10 mM compound stock solution in DMSO. Compound dilutions were transferred into the cell culture plates using a pintool (0.1 μL transfer), control wells were matched for DMSO. Positive control wells received ML RR—S2 CDA (Med Chem Express HY12885B) in 5 μL of media to a final concentration of 40 μM. All other wells received additional 5 μL of media only to equalise volume. The plates were incubated for 24 h at 37° C./5% CO2.
(§3) For the detection step, QUANTI-Luc (InvivoGen #rep-qlc1) was prepared according to manufacturer's instruction and 10 μL were added per well to the culture plates. Plates were shaken for ten seconds on an orbital shaker and left in the dark at room temperature for two minutes, before luminescence was read on a Perkin Elmer Envision plate reader.
(§4) Data analysis: Luminescence raw data was normalised % activity relative to the signal of the positive control wells and negative control wells which were not treated with compound. The following formula was used to calculate normalised % activity from raw signals: % activity=(sample−negative)/(positive−negative)
(§5) The THP-1 STING Lucia ISG cell EC50 provides an assessment of activity at the human HAQ isoform of STING. For assessing compound activity against the WT human STING isoform, an equivalent method was conducted where the cells used were THP-1-Dual KI-hSTING-R232 (InvivoGen #thpd-r232).

[2] = molecular target: WT human STING isoform (THP-1-Dual KI-hSTING-R232 cells) (Homo sapiens (Human), UniProt Q86WV6, H232R); experiment: THP-1-Dual KI-hSTING-R232 reporter cell line assay; assay type: cell-based; conditions: 24 h incubation, QUANTI-Luc luminescence
WT human STING isoform (THP-1-Dual KI-hSTING-R232 cells), sequence (Q86WV6 whole entry H232R, canonical isoform): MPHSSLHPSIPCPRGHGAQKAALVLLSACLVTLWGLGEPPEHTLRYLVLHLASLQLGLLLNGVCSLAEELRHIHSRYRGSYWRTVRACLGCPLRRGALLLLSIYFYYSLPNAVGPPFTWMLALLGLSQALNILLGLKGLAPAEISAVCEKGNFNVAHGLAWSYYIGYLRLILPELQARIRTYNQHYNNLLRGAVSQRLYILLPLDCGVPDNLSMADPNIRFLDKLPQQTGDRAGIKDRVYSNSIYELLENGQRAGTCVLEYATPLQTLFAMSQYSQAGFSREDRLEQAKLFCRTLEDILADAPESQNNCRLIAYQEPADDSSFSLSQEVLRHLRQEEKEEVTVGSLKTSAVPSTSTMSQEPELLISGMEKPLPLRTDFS
Method: as §1, §2, §3, §4, §5

human STING (HAQ) = human STING (HAQ) (Homo sapiens, UniProt Q86WV6, G230A/H232R/R293Q); experiment: Differential scanning fluorimetry (DSF), huSTING (HAQ); assay type: binding; conditions: 2 μM protein, compound 100 μM; Tm with ligand minus Tm of protein alone (1% DMSO); read-out: DSF huSTING (HAQ) ΔTm (° C.)
human STING (HAQ), sequence (Q86WV6 whole entry G230A/H232R/R293Q, looked up): as the sequence (Q86WV6 whole entry H232R, canonical isoform) above, with G230A, R293Q counted along it
Method: (§6) Biophysical experiments were performed with three different recombinant human STING protein variants designated according to allelic nomenclature of Yi et al., (2013). […] These were ligated into a modified pET43a E. coli expression vector designed to encode N-terminal His tag followed by tobacco etch virus protease (TEV) cleavage site and a STING gene sequence. The resulting protein sequences for the three allelic variants are listed below: […] Cultures were then cooled to 16° C. and protein expression induced by the addition of isopropyl β-D-1-thiogalactopyranoside to a final concentration of 0.5 mM and the cultures shaken overnight for further 16 hours. Following expression, cell cultures were centrifuged at 5000×g for 20 min and cell pellet stored frozen at −70° C. Protein purification was initiated by thawing the cell pellet in Lysis buffer (25 mM Tris-HCl pH 8.0, 300 mM NaCl, 5 mM DTT, 2 mM MgCl2, 10 mM imidazole, 0.5 mg/ml lysozyme, benzonase endonuclease [EMD Millipore], 1 mM PMSF, complete protease inhibitor tablets EDTA-free [Roche]) using a ratio of 7 ml of buffer per 1 g of cells. Cells were further lysed by 3 passes through an ice cooled Avestin C5 cell crusher and then centrifuged at 48,000×g at 4° C. […] The IMAC column was then sequentially washed with IMAC Wash buffer 1 and IMAC Wash buffer 2 (25 mM Tris-HCl pH 8.0, 300 mM NaCl, 5 mM DTT, 20 mM Imidazole) and bound His-TEV-hSTING protein eluted with IMAC Elution buffer (25 mM Tris-HCl pH 8.0, 300 mM NaCl, 5 mM DTT, 250 mM Imidazole). […] Differential scanning fluorimetry (DSF) is a rapid screening method for identifying low-molecular-weight ligands that bind and, in doing so, stabilize (or sometimes destabilize) purified proteins (Niesen 2007). DSF monitors thermal unfolding of protein in the presence of a fluorescent dye and is typically performed using a real-time PCR instrument. The temperature at which a protein unfolds is measured by an increase in the fluorescence of a dye with affinity for hydrophobic parts of the protein that are gradually being exposed during unfolding. The fluorescence of the dye is quenched in aqueous environments, but when the dye associates with hydrophobic sites on unfolded protein, its fluorescence increases. The fluorescence intensity is plotted as a function of the temperature, generating a sigmoidal curve that can be described by a two-state transition. The inflection point of the transition curve (Tm) is calculated using simple equations such as that of Boltzmann. Thermal stability of STING protein (with and without bound ligand) was measured using previously described methodology (Seabrook & Newman, 2013), with samples tested in triplicate using 96-well PCR microplate (AB Gene, ABGAB-0600/W). […] Sealed plates were placed into Bio-Rad CFX96/C1000 thermocycler and FRET scanning mode (λ^excitation of 490 nm and reads at a λ^emission of 570 nm). Melting curves were recorded from 20° C. to 100° C. in 0.5° C. increments every 30 seconds with a read at each increment. Data were analysed using “Meltdown analysis” protocol described by Rosa (2015).

human STING (WT) = human STING (WT) (Homo sapiens (Human), UniProt Q86WV6, H232R); experiment: Differential scanning fluorimetry (DSF), huSTING (WT); assay type: binding; conditions: 2 μM protein, compound 100 μM, Tm with ligand minus Tm of protein alone (1% DMSO); for ΔTm at 100 µM: read-out: DSF huSTING (WT) ΔTm (° C.)
human STING (WT), sequence (Q86WV6 other isoform, or with tags, fused parts or gaps, stated change not applied): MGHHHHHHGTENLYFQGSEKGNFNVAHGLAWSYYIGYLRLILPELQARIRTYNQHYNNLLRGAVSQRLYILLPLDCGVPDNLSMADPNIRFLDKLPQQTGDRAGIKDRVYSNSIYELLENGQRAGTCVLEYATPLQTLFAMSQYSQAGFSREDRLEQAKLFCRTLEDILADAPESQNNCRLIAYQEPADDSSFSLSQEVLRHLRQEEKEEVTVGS
Method: as §6

human HAQ isoform of STING (THP-1 STING Lucia ISG cells), sequence (Q86WV6 whole entry R71H/G230A/H232R/R293Q, canonical isoform): as the sequence (Q86WV6 whole entry H232R, canonical isoform) above, with R71H, G230A, R293Q counted along it

| EC50 [1] [nM] | EC50 [2] [nM] | ΔTm at 100 µM (human STING (HAQ)) [°C] | ΔTm at 100 µM (human STING (WT)) [°C] | DSF huSTING (WT) ΔTm (° C.) (human STING (WT)) [°C] | Structure (SMILES) |
| --- | --- | --- | --- | --- | --- |
| 1530 | 1450 | 28.2 | 17 |  | COc1c(C(N)=O)ccc2c1nc(-c1c(Cl)cccc1C(=O)O)n2CCn1c(-c2c(Cl)cccc2C(=O)O)nc2c(OC)c(C(N)=O)ccc21 (racemic) [Example 22, 2,2′-(Ethane-1,2-diylbis(5-carbamoyl-4-methoxy-1H-benzo[d]imidazole-1,2-diyl))bis(3-chlorobenzoic acid)] |
| 297 | 232 | 31.7 |  | 19.29 | COc1c(C(N)=O)ccc2c1nc(-c1c(I)cccc1C(=O)O)n2CCn1c(-c2c(I)cccc2C(=O)O)nc2c(OC)c(C(N)=O)ccc21 (single isomer, unassigned) [Example 19.1, 2,2′-(Ethane-1,2-diylbis(5-carbamoyl-4-methoxy-1H-benzo[d]imidazole-1,2-diyl))bis(3-iodobenzoic acid)] |
| 2500 | 2470 | 29.2 | 15 |  | COc1c(C(N)=O)ccc2c1nc(-c1c(Cl)cccc1-c1nn[nH]n1)n2CCn1c(-c2c(Cl)cccc2-c2nn[nH]n2)nc2c(OC)c(C(N)=O)ccc21 (single isomer, unassigned) [Example 23, 1,1′-(Ethane-1,2-diyl)bis(2-(2-chloro-6-(2H-tetrazol-5-yl)phenyl)-4-methoxy-1H-benzo[d]imidazole-5-carboxamide)] |
| 18400 | 9850 |  |  | −0.07 | NC(=O)c1ccc2c(c1)nc(-c1c(Br)cccc1C(=O)O)n2CCn1c(-c2c(Br)cccc2C(=O)O)nc2cc(C(N)=O)ccc21 (single isomer, unassigned) [Example 29.1, 2,2′-(Ethane-1,2-diylbis(5-carbamoyl-1H-benzo[d]imidazole-1,2-diyl))bis(3-bromobenzoic acid)] |
| 1070 | 895 | 9.44 | 5.07 |  | COc1c(C(N)=O)ccc2c1nc(-c1ccc(Cl)cc1C(=O)O)n2CCn1c(-c2ccc(Cl)cc2C(=O)O)nc2c(OC)c(C(N)=O)ccc21 [Example 1, 6,6′-(Ethane-1,2-diylbis(5-carbamoyl-4-methoxy-1H-benzo[d]imidazole-1,2-diyl))bis(3-chlorobenzoic acid)] |
| > 40000 | > 40000 | -3.48 | -6.94 |  | NC(=O)c1ccc2c(c1)nc(-c1ccccc1C(=O)O)n2CCn1c(-c2ccccc2C(=O)O)nc2cc(C(N)=O)ccc21 [Example 2, 2,2′-(Ethane-1,2-diylbis(5-carbamoyl-1H-benzo[d]imidazole-1,2-diyl))dibenzoic acid] |
| > 40000 | > 40000 | 2.66 | -0.02 |  | NC(=O)c1ccc2c(c1)nc(-c1cc(Br)ccc1C(=O)O)n2CCn1c(-c2cc(Br)ccc2C(=O)O)nc2cc(C(N)=O)ccc21 [Example 3, 2,2′-(Ethane-1,2-diylbis(5-carbamoyl-1H-benzo[d]imidazole-1,2-diyl))bis(4-bromobenzoic acid)] |
| 15900 | 32500 | 7.23 | 3.28 |  | COc1c(C(N)=O)ccc2c1nc(-c1ccccc1C(=O)O)n2CCn1c(-c2ccccc2C(=O)O)nc2c(OC)c(C(N)=O)ccc21 [Example 4, 2,2′-(Ethane-1,2-diylbis(5-carbamoyl-4-methoxy-1H-benzo[d]imidazole-1,2-diyl))dibenzoic acid] |
| 24800 | 6400 | 6.04 | 1.33 |  | NC(=O)c1ccc2c(c1)nc(-c1ccccc1-c1nn[nH]n1)n2CCn1c(-c2ccccc2-c2nnn[nH]2)nc2cc(C(N)=O)ccc21 [Example 5, 2-(2-(1H-Tetrazol-5-yl)phenyl)-1-(2-(2-(2-(2H-tetrazol-5-yl)phenyl)-5-carbamoyl-1H-benzo[d]imidazol-1-yl)ethyl)-1H-benzo[d]imidazole-5-carboxamide] |
| 902 | 936 | 5.44 | 0.94 |  | COc1c(C(N)=O)ccc2c1nc(-c1ccccc1-c1nn[nH]n1)n2CCn1c(-c2ccccc2-c2nn[nH]n2)nc2c(OC)c(C(N)=O)ccc21 [Example 6, 1,1′-(Ethane-1,2-diyl)bis(2-(2-(2H-tetrazol-5-yl)phenyl)-4-methoxy-1H-benzo[d]imidazole-5-carboxamide)] |
| 777 | 715 | 11.3 | 5.06 |  | COc1c(C(N)=O)ccc2c1nc(-c1ccc(Cl)cc1-c1nn[nH]n1)n2CCn1c(-c2ccc(Cl)cc2-c2nn[nH]n2)nc2c(OC)c(C(N)=O)ccc21 [Example 9, 1,1′-(Ethane-1,2-diyl)bis(2-(4-chloro-2-(2H-tetrazol-5-yl)phenyl)-4-methoxy-1H-benzo[d]imidazole-5-carboxamide)] |
| 1590 | 1390 | 18.4 | 9.63 |  | COc1c(C(N)=O)ccc2c1nc(-c1c(F)cccc1C(=O)O)n2CCn1c(-c2c(F)cccc2C(=O)O)nc2c(OC)c(C(N)=O)ccc21 [Example 10, 2,2′-(Ethane-1,2-diylbis(5-carbamoyl-4-methoxy-1H-benzo[d]imidazole-1,2-diyl))bis(3-fluorobenzoic acid)] |
| 830 | 683 | 22.1 | 10.6 |  | COc1c(C(N)=O)ccc2c1nc(-c1c(F)cc(Cl)cc1C(=O)O)n2CCn1c(-c2c(F)cc(Cl)cc2C(=O)O)nc2c(OC)c(C(N)=O)ccc21 [Example 11, 2,2′-(ethane-1,2-diylbis(5-carbamoyl-4-methoxy-1H-benzo[d]imidazole-1,2-diyl))bis(5-chloro-3-fluorobenzoic acid)] |
